# Results: patent US20250115926A1, “DEREGULATED DHS AND TYRA ENZYMES OF GRASSES ENABLE EFFICIENT PRODUCTION OF BOTH TYROSINE AND PHENYLALANINE” (Wisconsin Alumni Research Foundation, priority 2023, published 2025)
# Experiments:
# [1] = biological target: T1, Brachypodium distachyon BdTyrA1, SEQ ID NO: 33, recombinant (Brachypodium distachyon, UniProt A0A2K2DMR9); test: TyrA arogenate dehydrogenase kinetics and tyrosine inhibition (340 nm); type: biochemical
# T1 construct: from genomic DNA
# T1 sequence (A0A2K2DMR9 539-925): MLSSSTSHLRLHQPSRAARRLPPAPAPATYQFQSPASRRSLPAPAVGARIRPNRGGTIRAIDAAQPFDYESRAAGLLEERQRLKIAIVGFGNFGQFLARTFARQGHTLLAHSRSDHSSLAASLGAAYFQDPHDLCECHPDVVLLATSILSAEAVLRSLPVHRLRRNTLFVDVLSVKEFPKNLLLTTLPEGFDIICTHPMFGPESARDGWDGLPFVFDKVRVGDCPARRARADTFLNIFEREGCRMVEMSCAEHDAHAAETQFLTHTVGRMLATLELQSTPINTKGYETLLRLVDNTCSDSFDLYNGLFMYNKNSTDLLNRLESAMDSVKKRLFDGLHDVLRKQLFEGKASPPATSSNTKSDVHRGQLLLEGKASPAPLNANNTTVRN
# From the text: (§1) Next, to study the biochemical properties of grass TyrA enzymes, we generated and characterized recombinant purified TyrA proteins from Brachypodium (BdTyrA) and Sorghum (SbTyrA), two distantly related grass species^43, 44. Whereas TyrA enzymes from dicot plants are generally NADP^+-dependent arogenate dehydrogenases^20, 39, 45, except for NADP^+-prephenate dehydrogenases in the legume family^40, 46, previous reports on the substrate preference of grass TyrA enzymes are inconclusive^17, 19. […] NAD^+-prephenate dehydrogenase activity was absent in all cases, ruling out a significant contamination of the enzyme preparations with the TyrA enzyme from E. coli^47.48.
# [2] = biological target: T2, Brachypodium distachyon BdTyrAnc (non-canonical TyrA), SEQ ID NO: 37, recombinant (Brachypodium distachyon, UniProt I1GYB3); test: as above; type: biochemical
# T2 construct: from cDNA
# T2 sequence (I1GYB3 58-361): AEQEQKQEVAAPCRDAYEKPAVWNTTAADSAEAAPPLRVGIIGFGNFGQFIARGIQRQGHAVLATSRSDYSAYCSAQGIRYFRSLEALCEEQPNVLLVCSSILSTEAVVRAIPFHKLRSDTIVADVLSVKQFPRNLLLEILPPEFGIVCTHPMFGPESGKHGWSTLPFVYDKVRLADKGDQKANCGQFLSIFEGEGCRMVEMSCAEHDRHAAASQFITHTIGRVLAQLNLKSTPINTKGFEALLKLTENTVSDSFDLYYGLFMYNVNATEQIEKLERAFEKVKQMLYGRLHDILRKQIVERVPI
# From the text: as §1
# [3] = biological target: Brachypodium distachyon BdDHS1a, SEQ ID NO: 1, recombinant (Brachypodium distachyon, UniProt I1GSB3); test: DHS activity: kinetics and effector inhibition; settings: read-out: inhibition at 0.5 mM
# Chain of Brachypodium distachyon BdDHS1a, SEQ ID NO: 1, recombinant (I1GSB3 46-537): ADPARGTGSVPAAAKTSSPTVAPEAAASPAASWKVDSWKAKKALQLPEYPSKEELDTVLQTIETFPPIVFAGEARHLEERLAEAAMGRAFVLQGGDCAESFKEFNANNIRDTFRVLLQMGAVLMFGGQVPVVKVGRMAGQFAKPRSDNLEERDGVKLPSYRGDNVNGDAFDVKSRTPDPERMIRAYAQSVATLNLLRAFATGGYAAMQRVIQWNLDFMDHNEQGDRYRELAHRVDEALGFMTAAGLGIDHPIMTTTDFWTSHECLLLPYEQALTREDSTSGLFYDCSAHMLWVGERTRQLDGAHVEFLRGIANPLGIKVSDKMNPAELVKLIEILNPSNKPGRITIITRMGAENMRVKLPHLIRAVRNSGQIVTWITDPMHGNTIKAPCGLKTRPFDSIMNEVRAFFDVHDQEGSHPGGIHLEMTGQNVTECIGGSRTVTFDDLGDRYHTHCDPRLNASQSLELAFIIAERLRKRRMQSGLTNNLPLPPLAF
# From the text: To examine their functional properties, the recombinant DHS enzymes of Brachypodium were produced and characterized in vitro.
# As recent studies have shown that plant DHS enzymes are feedback-inhibited by multiple effector molecules^15, 16, we tested the effect of AAAs and another 14 related metabolites, including various intermediates of the shikimate pathway and the pathways downstream of AAAs, on Brachypodium DHS enzymes.
# The DHS assay for UHPLC-MS quantification was set up using the same settings as described in the previous paragraph for the UV-based DHS assay, which guaranteed at least 10 minutes of reaction linearity. After a 10-minute incubation, 20 μL of the reactions (out of a total volume of 50 μL) were mixed into 80 μL of methanol, vortexed and transferred to vials for injection. Analysis of DAHP by UHPLC-MS was conducted using the same chromatographic settings as described for the UHPLC-MS analysis of soluble metabolites and compared with an authentic DAHP standard (Sta. Cruz biotechnology, cat. no. sc-216432).
# [4] = IC50 (tyrosine), 0.5 mM arogenate, 1 mM NADP^+
smiles,measurement,setting,value
N[C@@H](Cc1ccc(O)cc1)C(=O)O [tyrosine],Ki,[1],46 ± 3 µM
same,activity at 200 μM of tyrosine,[1]; 200 μM tyrosine,fully inactive
same,mode of feedback inhibition by tyrosine,[1]; FIG. 12,competitive
same,IC50,[1]; [4],66 ± 2 µM
same,IC50,[2]; [4],242 ± 45 µM
same,Ki,"[2]; calculated from Km and IC50, competitive inhibition model",64 ± 25 µM
same,activity at 200 µM,[2]; read-out: activity retained at 200 μM of tyrosine,> 50%
same,mode of inhibition by tyrosine,[2]; with respect to arogenate,competitive with arogenate
same,inhibition at 500 µM,[3],~25%
